Data taken from US20160287741A1, “METASTABLE SILVER NANOPARTICLE COMPOSITES WITH COLOR INDICATING PROPERTIES” (SIENNA LABS, INC., priority 2013, published 2016).

Key:
[1] = Gelled deodorant stick blends, silica stabilized vs non-stabilized nanoplates vs silver salt: settling, peak resonance shift, hue; format: physicochemical; conditions: Table A blends
Protocol: Gelled sticks with silver nanoplates were prepared by blending water, dipropylene glycol and propylene glycol components, heating the resulting blends to 85° C., adding the poloxamine to the heated blend and mixing until clear, adding the sodium stearate to the heated blends and again mixing until clear, cooling the blends to 75° C. and adding the 2-amino-2-methylpropan-1-ol with agitation, cooling the blends to 71-73° C., and mixing in the remaining ingredients. Non-stabilized silver nanoplates and silica stabilized silver nanoplates were prepared according to the methods in example 1 and 2 respectively and added into separate blends. A silver salt was added to a separate blend. The blends were then allowed to cool to room temperature and gel.
A 100 microliter aliquot of from non-stabilized and silica stabilized silver blend solutions was added to a 96 well plate and allowed to cool to room temperature and gel.

[2] = Gelled deodorant stick blends, PVP nanoplates with or without borate vs silver salt: settling, peak resonance shift, hue; format: physicochemical; conditions: Table B blends
Protocol: Gelled sticks with silver nanoplates were prepared by blending water, dipropylene glycol and propylene glycol components, heating the resulting blends to 85° C., adding the poloxamine to the heated blend and mixing until clear, adding the sodium stearate to the heated blends and again mixing until clear, cooling the blends to 75° C. and adding the 2-amino-2-methylpropan-1-ol with agitation, cooling the blends to 71-73° C., and then mixing in the remaining ingredients. PVP and borate stabilized silver nanoplates were prepared according to the methods in example 1 with the addition of PVP and borate into the mixture after synthesis. In one blend was added borate prior to adding silver nanoplates, in another blend borate was not added. A silver salt was added to a separate blend with no borate. The blends were then allowed to cool to room temperature and gel.
A 100 microliter aliquot from non-stabilized and silica stabilized silver blend solutions was added to a 96 well plate and allowed to cool to room temperature and gel.

[3] = EPA Reference Dose for Chronic Oral Exposure (RfD) for silver and intravenous conversion; design: species or system human population
Description: We estimate less than half of the silver has diffused from the silicone into the IV fluid over 7 days based on the silver nanoplate plasmonic peak wavelength, which corresponds directly with the diameter decrease in the etched silver nanoplates. Even if all of the silver had diffused from the silicone into the IV fluid during 7 days, this would correspond to a daily body absorption of 1.6 micrograms per day. In the United States, the EPA has set a Reference Dose for Chronic Oral Exposure (RfD) of 5 micgrams per Kg per day for silver. RfD is the daily exposure to the human population (including sensitive subgroups) that is likely to be without an appreciable risk of deleterious effects during a lifetime. Oral dose is estimated based on a conversion of 4% absorption of dietary silver into the body. Thus, an intravenous RfD would be approximately 0.2 micrograms per day of silver. For a 70 Kg person, this corresponds to 14 micrograms per day.

[4] = EPA, United States; cited from earlier work

SMILES | settling in gelled deodorant blend [1] | settling in gelled deodorant blend [2] | intravenous RfD for a 70 Kg person ([3]; 70 Kg person) [micrograms per day] | intravenous RfD ([3]; conversion of 4% absorption of dietary silver) | Reference Dose for Chronic Oral Exposure (RfD) [4] [micgrams per Kg per day]
[Cl][Ag] [silver chloride, Silver Chloride] | exhibited settling | exhibited settling |  |  | 
[Ag] [silver] |  |  | 14 | approximately 0.2 micrograms per day | 5
